Measured values from patent US9562046B2, “Means and method for treating solid tumors” (Vivolux AB, priority 2012, dated 2017).

Assays:
[1] = Plasma pharmacokinetics after intravenous injection in NMRI mice; type: in vivo
Experimental: (§1) The compound of the invention (compound 11) was injected intravenously in NMRI mice. […] The compound was rapidly distributed and finally eliminated with a half-life of 4˜5 h. The systemic toxicity of the compound of the invention is low.

[2] = Stability studies at room temperature in 5% aqueous mannitol; type: physicochemical; conditions: dihydrochloride/ethanol complex, storage for 100 h
Experimental: Stability studies at room temperature were conducted with from 0.1 mg/L to 15 mg/L of the dihydrochloride/ethanol complex in 5% aqueous mannitol (to provide for isotonicity). […] For instance, about 2.5% compound 11 is degraded after storage for 100 h of a solution comprising 15 mg compound per liter, while about 5% of the compound is degraded in a solution comprising 2 mg compound per liter, and about 13 of the compound in a solution comprising 0.1 mg compound per liter.

[3] = test system: NMRI mice; assay: Intravenous tolerability / systemic toxicity in NMRI mice; type: in vivo
Experimental: as §1

[4] = as above; type: in vivo; conditions: mouse, in vivo, iv, injected intravenously, read-out: maximally tolerated dose (MTD)
Experimental: as §1

## C/C(=N/Nc1ccc2c(n1)[nH]c1c(C)cccc12)c1ccccn1 [compound 11, 2-[(1Z)-1-(2-{8-Methyl-8H, 8aH, 9H-pyrido[2,3-b]indol-2-yl}hydrazin-1-ylidene)ethyl]-pyridine]
[1]; at MTD of 16 mg/kg
  initial plasma concentration relative to the IC50 of tumor cell lines and primary patient colorectal cancer cells in vitro: > 10 fold
[1]; mouse, plasma, 16 mg/kg, NMRI mice, read-out: elimination half-life
  half-life: 4 to 5 h
[1]; mouse, plasma, at MTD of 16 mg/kg, NMRI mice, read-out: initial plasma concentration
  C0: ~100 µM
[2]; 0.1 mg compound per liter
  compound degraded: about 13
[2]; 2 mg compound per liter
  compound degraded: about 5%
[2]; 15 mg compound per liter
  compound degraded: about 2.5%
[3]; doses up to 4.5 mg/kg
  changes in plasma parameters (liver ALT, blood glucose, total protein): did not produce noteworthy changes
  effect on the animals' weight gain: nor did they prevent the animals from gaining weight
[3]; intravenous
  systemic toxicity: low
[4]
  MTD: 16 mg/kg
